# According to US11414387B2, “Oxoacridinyl acetic acid derivatives and methods of use” (Stingthera, Inc., priority 2017, dated 2022):
# Legend:
# hSTING-WT = hSTING-WT (Homo sapiens (Human), UniProt Q86WV6, H232R); test: Radiometric filtration binding competition assay, hSTING-WT
# hSTING-R232 = hSTING-R232 (Homo sapiens (Human), UniProt Q86WV6, H232R); test: STING differential scanning fluorimetry (DSF) assay, WT human STING; conditions: WT (R232) human STING aa140-379, net shift in melting temperature
# Chain of hSTING-R232 (Q86WV6 140-379 H232R): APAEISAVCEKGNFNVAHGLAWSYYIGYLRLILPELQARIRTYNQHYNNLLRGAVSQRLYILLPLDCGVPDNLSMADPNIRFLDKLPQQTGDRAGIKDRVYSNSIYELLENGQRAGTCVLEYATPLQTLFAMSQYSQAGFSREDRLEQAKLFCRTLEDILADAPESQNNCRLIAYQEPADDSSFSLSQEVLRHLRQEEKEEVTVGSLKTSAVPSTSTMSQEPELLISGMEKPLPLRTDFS
# STING protein = STING protein (Homo sapiens (Human), UniProt Q86WV6, H232R); test: Cell based reporter assay of IRF activation (IRF-luciferase), THP1-dual-KI R232; conditions: read-out: THP1-dual-KI R232_IRF(Luciferase)_Activity Maximum measured (%)
# Chain of STING protein (Q86WV6 whole entry H232R): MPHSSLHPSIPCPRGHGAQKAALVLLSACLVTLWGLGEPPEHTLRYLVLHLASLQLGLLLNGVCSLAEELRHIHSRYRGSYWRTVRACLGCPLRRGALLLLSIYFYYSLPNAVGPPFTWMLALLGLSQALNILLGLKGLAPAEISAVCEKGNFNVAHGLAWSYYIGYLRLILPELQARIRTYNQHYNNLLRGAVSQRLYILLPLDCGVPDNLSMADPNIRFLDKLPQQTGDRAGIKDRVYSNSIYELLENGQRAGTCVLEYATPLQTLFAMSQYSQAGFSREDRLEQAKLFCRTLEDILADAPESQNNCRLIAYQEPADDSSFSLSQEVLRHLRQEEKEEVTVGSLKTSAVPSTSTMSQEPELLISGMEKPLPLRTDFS
# Description: Briefly, THP-1 monocytes were transfected and selected for stable integration of 2 reporter constructs. Clones incorporating stably integrated vectors were further selected by antibiotic resistance to blastocidin and zeocin. The reporter constructs included: (1) firefly luciferase reporter gene under the control of an ISG54 promoter fused to five interferon (IFN)-stimulated response elements to measure IRF transcription factor binding activity and (2) secreted embryonic alkaline phosphatase reporter gene under transcription control of an IFN-beta minimal promoter fused to 5 copies of the NFkB consensus transcriptional response element and 3 copies of the c-Rel binding site.
# The resulting THP-1 cell line was further modified to incorporate 3 amino acid point mutations (H71R A230G Q293R). This modification of the native TMEM173 gene in THP-1 cells (HAQ) was designed to produce a cell reporter that expressed the most common allelic variant in the human population (THP-1 R232, available from InvivoGen). Alternatively, the TMEM173 gene was knocked out to provide a congenic control to counter-screen for compound activation that was independent of the STING protein (THP-1 STING KO).
# Once cell lines were established, reporter assay protocols were developed and optimized to screen small molecule compounds for agonist activity. Assay optimization for efficacy and Z′ value included titration of the following parameters:
# • 1. Cell pre-activation with PMA • 2. Cell seeding density • 3. DMSO tolerance • 4. Media selection • 5. FBS concentration • 6. Incubation time • 7. Co-Assessment of cell viability by CTG assay • 8. Appropriate HPE and ZPE controls • 9. Dose Response Titration Final Assay SOP Conditions • 1. No pre-activation with PMA • 2. 5×10^4 cells/well in 96 well plate format • 3. <0.5% DMSO • 4. […] 10% FBS • 6. 14-18 hr incubation • 7. Cell Titer Glo reagent (Promega) following supernatant removal • 8.
# Chain of hSTING-WT (Q86WV6 140-379 H232R): as the sequence (Q86WV6 140-379 H232R) above
Structure (SMILES),IC50 (hSTING-WT) [µM],WT_DSF_hSWAT Tm Shift (° C.) (hSTING-R232),Emax (STING protein) [%]
C[C@@H](C(=O)O)n1c2ccccc2c(=O)c2ccc(Cl)c(Cl)c21 [Compound 100],> 300,A (“A” < 0° C.),
C[C@H](C(=O)O)n1c2ccccc2c(=O)c2ccc(Cl)c(Cl)c21 [Compound 101],> 300,A (“A” < 0° C.),
Cc1ccc2c(=O)c3ccc(Cl)c(Cl)c3n(CC(=O)O)c2c1C [Compound 134],20 to 100,A (“A” < 0° C.),< 5
CN(C)c1c(Cl)ccc2c(=O)c3ccccc3n(CC(=O)O)c12 [Compound 136],20 to 100,D (“D” > 7° C.),
CSc1ccc2c(=O)c3ccc(Cl)c(Cl)c3n(CC(=O)O)c2c1 [Compound 137],100 to 300,"C (“C” = 2-7° C,)",25 to 50
CC(C)Sc1ccc2c(=O)c3ccc(Cl)c(Cl)c3n(CC(=O)O)c2c1 [Compound 149],100 to 300,"C (“C” = 2-7° C,)",< 5
O=C(O)Cn1c2cc(C(F)F)ccc2c(=O)c2ccc(Cl)c(Cl)c21 [Compound 166],> 300,B (“B” = 0-2° C.),
O=C(O)Cn1c2cc(C(O)(C(F)(F)F)C(F)(F)F)ccc2c(=O)c2ccc(Cl)c(Cl)c21 [Compound 167],> 300,A (“A” < 0° C.),
CC(C)(O)c1ccc2c(=O)c3ccc(Cl)c(Cl)c3n(CC(=O)O)c2c1 [Compound 168],100 to 300,A (“A” < 0° C.),
O=C(O)Cn1c2cc(-c3cc[nH]n3)ccc2c(=O)c2ccc(Cl)c(Cl)c21 [Compound 182],100 to 300,"C (“C” = 2-7° C,)",
Cn1ccc(-c2ccc3c(=O)c4ccc(Cl)c(Cl)c4n(CC(=O)O)c3c2)n1 [Compound 184],> 300,"C (“C” = 2-7° C,)",
O=C(O)Cn1c2cc(-c3ccco3)ccc2c(=O)c2ccc(Cl)c(Cl)c21 [Compound 186],20 to 100,"C (“C” = 2-7° C,)",25 to 50
O=C(O)Cn1c2cc(-c3nccs3)ccc2c(=O)c2ccc(Cl)c(Cl)c21 [Compound 187],100 to 300,B (“B” = 0-2° C.),
Cn1ccnc1-c1ccc2c(=O)c3ccc(Cl)c(Cl)c3n(CC(=O)O)c2c1 [Compound 188],> 300,A (“A” < 0° C.),
O=C(O)Cn1c2cc(-c3cccnc3)ccc2c(=O)c2ccc(Cl)c(Cl)c21 [Compound 190],> 300,"C (“C” = 2-7° C,)",
CC(O)c1ccc2c(=O)c3ccc(Cl)c(Cl)c3n(CC(=O)O)c2c1 (centres unmarked) [Compound 191],> 300,B (“B” = 0-2° C.),
CC(C)c1ccc2c(=O)c3ccc(I)c(Cl)c3n(CC(=O)O)c2c1 [Compound 195],> 300,"C (“C” = 2-7° C,)",
CSc1ccc2c(=O)c3ccc(Cl)c(Br)c3n(CC(=O)O)c2c1 [Compound 196],20 to 100,D (“D” > 7° C.),
O=C(O)Cn1c2cc(N3CCCC3)ccc2c(=O)c2ccc(Cl)c(Br)c21 [Compound 201],100 to 300,"C (“C” = 2-7° C,)",5 to 25

Structure (SMILES),IC50 (hSTING-WT) [µM],WT_DSF_hSWAT Tm Shift (° C.) (hSTING-R232),Emax (STING protein) [%]
C[C@H]1CCCN1c1ccc2c(=O)c3ccc(Cl)c(Br)c3n(CC(=O)O)c2c1 [Compound 202],20 to 100,"C (“C” = 2-7° C,)",5 to 25
C[C@@H]1CCCN1c1ccc2c(=O)c3ccc(Cl)c(Br)c3n(CC(=O)O)c2c1 [Compound 203],20 to 100,"C (“C” = 2-7° C,)",> 50
O=C(O)CCCn1c2ccccc2c(=O)c2ccc(Cl)c(Cl)c21 [Compound 205],> 300,A (“A” < 0° C.),
O=C(O)Cn1c2ccccc2c2ccc(Cl)c(Cl)c21 [Compound 209],> 300,A (“A” < 0° C.),
CC(C)c1ccc2c3ccc(Cl)c(Cl)c3n(CC(=O)O)c2c1 [Compound 210],20 to 100,A (“A” < 0° C.),< 5
O=C(O)Cn1c2cc(C3CCC(O)CC3)ccc2c(=O)c2ccc(Cl)c(Cl)c21 (centres unmarked) [Compound 214],20 to 100,D (“D” > 7° C.),
CCOc1c(Cl)ccc2c(=O)c3ccc(C(C)(C)C)cc3n(CC(=O)O)c12 [Compound 224],20 to 100,,
COc1c(Cl)ccc2c(=O)c3ccc(C4CCCNC4)cc3n(CC(=O)O)c12 (centres unmarked) [Compound 227],> 300,"C (“C” = 2-7° C,)",< 5
COc1c(Cl)ccc2c(=O)c3ccc(SC4CCCCC4)cc3n(CC(=O)O)c12 [Compound 233],< 20,D (“D” > 7° C.),> 50
COc1c(Cl)ccc2c(=O)c3ccc(Nc4ccc(O)cc4)cc3n(CC(=O)O)c12 [Compound 236],< 20,D (“D” > 7° C.),
COc1c(Cl)ccc2c(=O)c3ccc(-c4cccc(C)c4)cc3n(CC(=O)O)c12 [Compound 238],< 20,D (“D” > 7° C.),> 50
CC(C)c1ccc2c(c1)c1ccc(Cl)c(Cl)c1n2CC(=O)O [Compound 240],20 to 100,,
COc1c(Cl)ccc2c(=O)c3ccc(C(C)C)cc3n(CC(=O)O)c12 [Compound 245],20 to 100,D (“D” > 7° C.),
CC(C)Oc1c(Cl)ccc2c(=O)c3ccccc3n(CC(=O)O)c12 [Compound 246],100 to 300,"C (“C” = 2-7° C,)",
O=C(O)Cn1c2ccccc2c(=O)c2ccc(Cl)c(OC3CCC3)c21 [Compound 247],100 to 300,A (“A” < 0° C.),
COc1c(Cl)ccc2c(=O)c3cc(F)c(C(C)C)cc3n(CC(=O)O)c12 [Compound 248],> 300,B (“B” = 0-2° C.),
COc1c(Cl)ccc2c(=O)c3ccc(S(C)(=O)=O)cc3n(CC(=O)O)c12 [Compound 249],> 300,B (“B” = 0-2° C.),
COc1c(Cl)ccc2c(=O)c3ccc(C4=CCCOC4)cc3n(CC(=O)O)c12 [Compound 252],20 to 100,D (“D” > 7° C.),
COc1c(Cl)ccc2c(=O)c3ccc(C4=CCOCC4)cc3n(CC(=O)O)c12 [Compound 254],20 to 100,D (“D” > 7° C.),> 50

Structure (SMILES),IC50 (hSTING-WT) [µM],WT_DSF_hSWAT Tm Shift (° C.) (hSTING-R232),Emax (STING protein) [%]
COc1c(Cl)ccc2c(=O)c3ccc(C4CCOCC4)cc3n(CC(=O)O)c12 [Compound 255],20 to 100,"C (“C” = 2-7° C,)",
O=C(O)Cn1c2cc(Nc3cnc(Cl)cn3)ccc2c(=O)c2ccc(Cl)c(Cl)c21 [Compound 258],20 to 100,D (“D” > 7° C.),< 5
CSc1c(Cl)ccc2c(=O)c3ccc(Nc4ccc(F)cc4)cc3n(CC(=O)O)c12 [Compound 259],< 20,D (“D” > 7° C.),
O=C(O)Cn1c2cc(C3CCC(O)CC3)ccc2c(=O)c2ccc(Cl)c(Cl)c21 (centres unmarked) [Compound 264],,"C (“C” = 2-7° C,)",5 to 25
O=C(O)Cn1c2cc([C@H]3CC[C@H](O)CC3)ccc2c(=O)c2ccc(Cl)c(Cl)c21 [Compound 264],< 20,,
COc1ccc2c(=O)c3ccccc3n(CC(=O)O)c2c1OC [Compound 265],> 300,B (“B” = 0-2° C.),< 5
COc1c(Cl)ccc2c(=O)c3ccc(-c4ccoc4)cc3n(CC(=O)O)c12 [Compound 277],< 20,D (“D” > 7° C.),> 50
COc1c(Cl)ccc2c(=O)c3ccc(-c4ccncc4)cc3n(CC(=O)O)c12 [Compound 278],20 to 100,D (“D” > 7° C.),> 50
COc1c(Cl)ccc2c(=O)c3ccc(C)cc3n(CC(=O)O)c12 [Compound 280],20 to 100,D (“D” > 7° C.),> 50
CCOc1c(Cl)ccc2c(=O)c3ccc(C)cc3n(CC(=O)O)c12 [Compound 282],20 to 100,D (“D” > 7° C.),> 50
CCCOc1c(Cl)ccc2c(=O)c3ccccc3n(CC(=O)O)c12 [Compound 284],> 300,"C (“C” = 2-7° C,)",5 to 25
O=C(O)Cn1c2ccccc2c(=O)c2ccc(Cl)c(Oc3ccccc3)c21 [Compound 287],> 300,B (“B” = 0-2° C.),< 5
CNc1ccc2c(=O)c3ccc(Cl)c(OC)c3n(CC(=O)O)c2c1 [Compound 299],20 to 100,"C (“C” = 2-7° C,)",> 50
COc1c(Cl)ccc2c(=O)c3ccc(NC(C)C)cc3n(CC(=O)O)c12 [Compound 300],20 to 100,"C (“C” = 2-7° C,)",> 50
O=C(O)Cn1c2ccccc2c(=O)c2ccc(Cl)c(-c3cccnc3)c21 [Compound 334],> 300,"C (“C” = 2-7° C,)",< 5
CC(C)Nc1ccc2c(=O)c3ccc(Cl)c(-c4ccccc4)c3n(CC(=O)O)c2c1 [Compound 336],< 20,D (“D” > 7° C.),> 50
COc1c(Cl)ccc2c(=O)c3ccc(C)cc3n(CC(=O)NC#N)c12 [Compound 338],100 to 300,"C (“C” = 2-7° C,)",25 to 50
O=C(Cn1c2ccccc2c(=O)c2ccc(Cl)c(Cl)c21)NO [Compound 353],100 to 300,A (“A” < 0° C.),
